Laboratory results reported in patent publication US20160002665A1, “[…] MALE STERILITY IN COMPOSITAE” (priority 2013, published 2016).

Columns and labels:
[1] = system: mutant endive plant (Cichorium endivia), having a mutated version of the OPR3 gene; experiment: Reversal of male sterility and pale flower color by treating young flower buds of homozygous OPR3 mutant endive; type: in vivo; conditions: for restoration of male fertility in F2 generation: F2 of cross of endive of the invention x wild-type endive, treatment as described in Example 3; for overcoming male sterility caused by the opr3 mutation: homozygous mutant endive, application to flower buds; for flower color of flowers developed from treated flower buds / male fertility (pollen function and seed set through self-pollination): homozygous mutants, daily spraying with 200 μM (0.2 mM) aqueous solution with 0.025% Zipper surfactant; for flower color of flowers developed from treated flower buds: about 3.5 months, untreated or mock-treated flowers pale (FIG. 2); for male fertility (pollen function and seed set through self-pollination): controls remained male-sterile
Excerpt: A mutant endive plant (Cichorium endivia), having a mutated version of the OPR3 gene, was obtained by means of chemical mutagenesis and subsequent TILLING screening of about 10,000 M2 plants.
Phenotypically this mutant endive plant was indistinguishable from wild-type endive plants, when the mutation was present in a heterozygous state. […] The pollen grains that developed in such homozygous mutants were unable to germinate and therefore dysfunctional.
Blue was the wild-type flower color in this endive background.

[2] = system: mutant lettuce plant (Lactuca sativa), having a mutated version of the OPR3 gene; experiment: Reversal of male sterility by spraying young flower buds of homozygous OPR3 mutant lettuce; type: in vivo; conditions: for restoration of male fertility in F2 generation: F2 of cross NCIMB 42060 x wild-type lettuce, treatment as described in Example 1; for seed production through selfing: inflorescences sprayed with 200 μM solution, compared with mock-treated control plants (FIG. 1)
Excerpt: A mutant lettuce plant (Lactuca sativa), having a mutated version of the OPR3 gene, was obtained by means of chemical mutagenesis and subsequent TILLING screening of about 3,000 M2 plants.
Phenotypically this mutant lettuce plant was indistinguishable from wild-type lettuce plants, when the mutation was present in a heterozygous state. […] The few pollen grains that developed in such homozygous mutants were not functional.
From the early bolting stage the inflorescences were sprayed 5 times per week, for a total of 3 weeks.

[3] = system: Arabidopsis thaliana with mutations in the OPR3 gene; conditions: treating flower buds; cited from earlier work

Row | SMILES | restoration of male fertility in F2 generation [1] | overcoming male sterility caused by the opr3 mutation [1] | restoration of male fertility in F2 generation [2] | flower color of flowers developed from treated flower buds [1] | flower color of flowers developed from treated flower buds ([1]; listed as MeJA) | male fertility (pollen function and seed set through self-pollination) [1] | male fertility (pollen function and seed set through self-pollination) ([1]; listed as MeJA) | effect of other application methods than spraying ([1]; solution painted onto the surface of young flower buds with a fine brush) | seed production through selfing ([2]; homozygous mutants) | seed production through selfing ([2]; homozygous mutants, listed as MeJA) | restoration of male fertility ([2]; homozygous mutants, young flower buds sprayed with 200 μM (0.2 mM) aqueous solution plus 0.025% Zipper surfactant, 5 times per week for 3 weeks) | restoration of male fertility [3]
1 | CC/C=C\C[C@H]1C(=O)CC[C@@H]1CC(=O)O [jasmonic acid, (3R,7S)-jasmonic acid] | sufficient to restore male fertility | had the same effect | sufficient to restore male fertility |  |  |  |  |  |  |  |  | 
2 | CC/C=C\CC1C(=O)CCC1CC(=O)OC (stereo not drawn) [methyl jasmonate] | sufficient to restore male fertility | could be overcome | sufficient to restore male fertility | changed to blue | developed into blue flowers | has become male-fertile | produced viable, functional pollen and were able to set seed through self-pollination | comparable effects | has produced seeds through selfing | produced seeds in a subset of their flowers | sufficient to restore male fertility | Male fertility could be restored
